Like-named read-outs stand apart in the source and are kept apart here.
Key:
MDA-MB-231 cells = experiment: MTT cell viability assay; format: cell-based, human; conditions: increasing concentrations, 48 hours
Text: In FIG. 6A, there is shown the effect of CCR5 antagonist on breast cancer cell viability. […] Graph is from a representative experiment carried out by sextuplicate. No statistical differences were found (ANOVA) in 3 independent experiments. In FIG. 6B, there is shown CCR5 expression in MDA-MB-231 cells stably transfected with pcDNA3.1+/Zeo+ (MDA.Vector) or human CCR5 cloned into pCDNA3+Zeo+ (MDA.CCR5). […] Representative experiment from 2 carried out by sextuplicate. […] Thus, the reduction in tumor mass in the lungs is due to the inhibition of “homing” or spread of tumors to the lung. […] Cells expressing eGFP were counted in 3 random fields of 2 different histologic sections (separated 700 μm from each other) per mouse (n=5 mice per group). Statistical analysis was conducted using Student t test. Bar in micrographs, 100 μm.
The MTT assay is a colorimetric assay for measuring the activity of cellular enzymes that reduce the tetrazolium dye, 3-(4,5-Dimethylthiazol-2-yl)-2,5-diphenyltetrazolium bromide, a yellow tetrazole (MTT), to its insoluble formazan, giving a purple color. […]
The effects of CCR5 antagonists on cell viability and proliferation rate were estimated using the soluble tetrazolium salt MTT assay (29). […] Then, the reduced (insoluble and colored) formazan was dissolved in DMSO and measured spectrophotometrically at 570 nm. […]

[1] = test system: Hs578T breast cancer cells; experiment: FBS-induced 3D invasion into collagen gels, Hs578T; format: cell-based, human; conditions: 100 nmol/L, 5% FBS as chemoattractant
Procedure: (§1) In FIG. 4A, there is shown 3D reconstruction of FBS-induced invasion into collagen gels by Hs578T breast cancer cells in presence of CCR5 antagonists (100 nmol/L). In FIG. 3C there is shown 3D reconstruction of FBS-induced invasion into collagen gels by SUM-159 breast cancer cells in presence of CCR5 antagonists (100 nmol/L).
(§2) The 3-dimensional invasion assay was conducted as previously reported (12). Briefly, 100 μL of 1.67 mg/mL Rat Tail collagen type I (BD Biosciences) was pipetted into the top chamber of a 24-well 8-μm pore Transwell (Corning). The Transwell was incubated at 37° C. overnight to allow the collagen to solidify. A total of 30,000 cells were then seeded on the bottom of the Transwell membrane and allowed to attach. Serum-free growth medium was placed into the bottom chamber, whereas 15 ng/mL CCL5 or 5% FBS was used as a chemoattractant in the medium of the upper chamber. The cells were then chemoattracted across the filter through the collagen above for 3 days. Cells were fixed in 4% formaldehyde, permeabilized with 0.2% Triton-X in PBS, and then stained with 40 μg/mL propidium iodide (PI) for 2 hours. Fluorescence was analyzed by confocal z-sections (one section every 20 μm) at ×10 magnification from the bottom of the filter using a Zeiss LSM 510 Meta inverted confocal microscope at the Kimmel Cancer Center Bioimaging Facility. […]

CCR5 = CCR5 (Homo sapiens, UniProt P51681); experiment: CCL5-induced calcium signaling (Fluo-4-AM intracellular calcium assay) in MDA-MB-231 cells; format: cell-based; conditions: antagonist 100 nmol/L for 30 minutes before addition of CCL5
CCR5, sequence (P51681 whole entry): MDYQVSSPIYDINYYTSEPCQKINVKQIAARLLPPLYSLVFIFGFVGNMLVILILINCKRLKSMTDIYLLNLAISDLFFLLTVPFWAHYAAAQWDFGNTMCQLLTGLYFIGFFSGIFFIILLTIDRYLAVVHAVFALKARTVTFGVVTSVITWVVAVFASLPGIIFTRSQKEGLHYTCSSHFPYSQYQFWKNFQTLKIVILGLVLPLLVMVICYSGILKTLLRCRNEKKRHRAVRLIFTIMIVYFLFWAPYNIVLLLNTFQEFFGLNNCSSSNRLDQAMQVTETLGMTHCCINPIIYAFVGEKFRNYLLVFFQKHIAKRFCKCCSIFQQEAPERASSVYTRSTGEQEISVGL
Procedure: Micrographs illustrate the axis (x-x′) of the pseudoline scan plot. Those axes were used to construct the adjacent intensity versus time plots. […] The data in FIGS. 3B and 3D are mean±SEM of 3 to 4 independent experiments. Statistical analysis was conducted using the Student t test.
Calcium responses induced either by CCL5 or FBS in human cancer cell lines were monitored under fluorescence confocal microscope as previously reported (28). Briefly, breast cancer cells were seeded in 4-well labtek chambers (Nunc) at 10^4 cells/cm^2 and incubated for 1 day. After 12-hour starvation, cells were labeled by incubating them with […] Fluo-4-AM (Molecular Probes) in HBSS for 30 minutes, washed twice, and incubated for additional 30 minutes before imaging under the microscope. Time-lapse images were collected using a Zeiss LSM 510 Meta inverted confocal microscope with the incubator at 37° C. Relative intracellular Ca^2+ concentration was determined by the changes in fluorescent intensity (FI) of Fluo-4-AM upon the addition of CCL5 (60 ng/mL) or FBS (5%) and was calculated as (FIt−FI0)/FI0.
The importance of CCR5 in HIV infection led to the development of different drugs that target this receptor.

[2] = test system: SUM-159 breast cancer cells; experiment: FBS-induced 3D invasion into collagen gels, SUM-159; format: cell-based, human; conditions: SUM-159 cells; 100 nmol/L; 5% FBS as chemoattractant
Procedure: as §1, §2

[3] = humans; oral dose of 300 mg; cited from earlier work
[4] = mice; 16 mg/kg; cited from earlier work
[5] = test system: MDA-MB-231 cells (MDA.pFULG) pulmonary metastases; experiment: Experimental lung metastasis assay (tail vein injection of MDA.pFULG cells, BLI, histology); format: in vivo, NOD/SCID mice
Procedure: In FIG. 5A, MDA-MB-231 cells transduced with Luc2-eGFP fusion protein were injected into the tail vein of NOD/SCID mice and the in vivo bioluminescent signal was quantified weekly. […] Tumor area was quantified with the Nikon Elements BR 3.0 software analyzing at low magnification (×40) 2 random fields of 2 different histologic sections (separated 600 μm from each other) per mouse. Statistical analysis was conducted using the Student t test with Welch correction for heterogeneous variances (n=33 and 12 for control and treated groups, respectively).
MB-MDA-231 cells expressing Luc2-eGFP (called MDA.pFLUG for the rest of the article) were detached with a nonenzymatic cell dissociation buffer (4 mmol/L EDTA in Ca^2+ and Mg^2+-free PBS), resuspended in Dulbecco's PBS without Ca^2+ and Mg^2+ and immediately injected into the tail vein of 8-week-old, female nonobese diabetic/severe combined immunodeficient (NOD/SCID) mice (NCI, Bethesda Md.). Each mouse received 10^6 cells. […] Treatment was started immediately after injection or 10 days later for the experiments analyzing the proliferation of established metastasis. For in vivo bioluminescence imaging (BLI), mice were given an intraperitoneal (i.p.) injection with 200 μL of d-luciferin (30 mg/mL). Mice were anesthetized with isoflurane (2% in 1 L/min oxygen), and bioluminescence images were acquired 10 to 15 minutes after d-luciferin injection using the IVIS XR system (Caliper Life Sciences). Acquisition times ranged from 10 seconds (for later time points) to 5 minutes (for early time points). Data are expressed as total photon flux and were analyzed using Living Image 3.0 software (Caliper Life Sciences). For ex vivo BLI, d-luciferin was diluted in PBS to a final concentration of 300 μg/mL and used to soak freshly isolated lungs for 2 to 3 minutes before imaging. Some lungs were stained with India ink, as previously reported (33), or processed and stained with hematoxylin and eosin to corroborate the presence of pulmonary tumors. For homing assays, mice were euthanized 24 hours after the intravenous injection of MDA.pFULG cells. Lungs were perfused with PBS, fixed with freshly prepared formaldehyde (4% in PBS), and frozen in optimum cutting temperature (Sakura Finetek). Cryosections (10 μm) were counterstained with 4′,6-diamidino-2-phenylindole analyzed by confocal microscopy. Animal experiments were approved by the Thomas Jefferson University's Institutional Animal Care and Use Committee.
MDA-MB-231 cells transduced within the Luc2-eGFP lentiviral vector (MDA.pFULG cells) were used in an experimental metastasis model. The Luc2 gene is a codon-optimized version of Luc and cells expressing this reporter were 10 to 100 times brighter than the unmodified Luc gene (30). […]

MDA.pFULG cells = experiment: Homing assay: lung colonization 24 hours after injection of MDA.pFULG cells; format: in vivo, mice; conditions: 10 administrations (twice a day for 5 days) before i.v. injection of cells; lungs 24 hours after injection
Text: (§3) In FIG. 6A, there is shown the effect of CCR5 antagonist on breast cancer cell viability. […] Graph is from a representative experiment carried out by sextuplicate. No statistical differences were found (ANOVA) in 3 independent experiments. In FIG. 6B, there is shown CCR5 expression in MDA-MB-231 cells stably transfected with pcDNA3.1+/Zeo+ (MDA.Vector) or human CCR5 cloned into pCDNA3+Zeo+ (MDA.CCR5). […] Representative experiment from 2 carried out by sextuplicate. […] Thus, the reduction in tumor mass in the lungs is due to the inhibition of “homing” or spread of tumors to the lung. […] Cells expressing eGFP were counted in 3 random fields of 2 different histologic sections (separated 700 μm from each other) per mouse (n=5 mice per group). […]
(§4) MB-MDA-231 cells expressing Luc2-eGFP (called MDA.pFLUG for the rest of the article) were detached with a nonenzymatic cell dissociation buffer (4 mmol/L EDTA in Ca^2+ and Mg^2+-free PBS), resuspended in Dulbecco's PBS without Ca^2+ and Mg^2+ and immediately injected into the tail vein of 8-week-old, female nonobese diabetic/severe combined immunodeficient (NOD/SCID) mice (NCI, Bethesda Md.). […] Data are expressed as total photon flux and were analyzed using Living Image 3.0 software (Caliper Life Sciences). […] Cryosections (10 μm) were counterstained with 4′,6-diamidino-2-phenylindole analyzed by confocal microscopy. […]

[6] = test system: MDA-MB-231 cells (MDA.pFULG) established pulmonary metastasis; experiment: Growth of established pulmonary metastasis (treatment started 10 days after cell injection); format: in vivo, NOD/SCID mice; conditions: 8 mg/kg every 12 hours; treatment initiated 10 days after injection of cells
Text: as §3, §4

[7] = 8 mg/kg twice daily, oral gavage

Structure (SMILES): COC[C@@H](c1ccc(C(F)(F)F)cc1)N1CCN(C2(C)CCN(C(=O)c3c(C)ncnc3C)CC2)C[C@@H]1C [vicriviroc, (4,6-dimethylpyrimidin-5-yl)-[4-[(3S)-4-[(1R)-2-methoxy-1-[4-(trifluoromethyl)phenyl]ethyl]-3-methylpiperazin-1-yl]-4-methylpiperidin-1-yl]methanone]
- cell viability (MTT reduction) (MDA-MB-231 cells): did not affect the MTT reduction
- FBS-induced breast cancer cell invasion [1]: inhibited FBS-induced breast cancer cell invasion
- inhibition of CCL5-induced calcium responses (CCR5): 90%
- FBS-induced breast cancer cell invasion [2]: inhibited FBS-induced breast cancer cell invasion

Structure (SMILES): Cc1nnc(C(C)C)n1[C@@H]1C[C@H]2CC[C@@H](C1)N2CC[C@H](NC(=O)C1CCC(F)(F)CC1)c1ccccc1 [maraviroc, 4,4-difluoro-N-[(1S)-3-[(1R,5S)-3-(3-methyl-5-propan-2-yl-1,2,4-triazol-4-yl)-8-azabicyclo[3.2.1]octan-8-yl]-1-phenylpropyl]cyclohexane-1-carboxamide]
- cell viability (MTT reduction) (MDA-MB-231 cells): did not affect the MTT reduction
- FBS-induced breast cancer cell invasion [1]: inhibited FBS-induced breast cancer cell invasion
- inhibition of CCL5-induced calcium responses (CCR5): 65%
- Cmax [3]: 1.2 µM
- Cmax [4]: 1.04 µM
- fraction of treated mice with detectable metastatic tumors [5, 7]: 50%
- reduction of mean size of metastatic tumors (lung histology) [5, 7]: 65%
- number and size of pulmonary metastases compared with vehicle-treated mice ([5]; 8 mg/kg twice daily, oral gavage, weekly BLI for 5 weeks): significant reduction
- pulmonary tumor burden ([5]; 16 mg/kg/d divided into 2 doses): significantly reduced
- reduction of the number of eGFP cells in the lungs (MDA.pFULG cells): 40%
- FBS-induced breast cancer cell invasion [2]: inhibited FBS-induced breast cancer cell invasion
- tumor growth of established pulmonary metastasis (in vivo BLI) [6]: did not modify tumor growth
